Test results reported in patent publication US12187723B2 (BRISTOL-MYERS SQUIBB COMPANY, priority 2019, dated 2025).

Legend:
[1] = biological target: T1, human TLR7 (Homo sapiens, UniProt Q9NYK1); experiment: TLR7 inhibition reporter assay (HEK-Blue SEAP); format: cell-based; settings: HEK-Blue cells overexpressing human TLR7, gardiquimod 7.5 μM, 22 hour incubation
T1 construct: host or cells: HEK-Blue cells
T1 sequence (Q9NYK1 27-1049): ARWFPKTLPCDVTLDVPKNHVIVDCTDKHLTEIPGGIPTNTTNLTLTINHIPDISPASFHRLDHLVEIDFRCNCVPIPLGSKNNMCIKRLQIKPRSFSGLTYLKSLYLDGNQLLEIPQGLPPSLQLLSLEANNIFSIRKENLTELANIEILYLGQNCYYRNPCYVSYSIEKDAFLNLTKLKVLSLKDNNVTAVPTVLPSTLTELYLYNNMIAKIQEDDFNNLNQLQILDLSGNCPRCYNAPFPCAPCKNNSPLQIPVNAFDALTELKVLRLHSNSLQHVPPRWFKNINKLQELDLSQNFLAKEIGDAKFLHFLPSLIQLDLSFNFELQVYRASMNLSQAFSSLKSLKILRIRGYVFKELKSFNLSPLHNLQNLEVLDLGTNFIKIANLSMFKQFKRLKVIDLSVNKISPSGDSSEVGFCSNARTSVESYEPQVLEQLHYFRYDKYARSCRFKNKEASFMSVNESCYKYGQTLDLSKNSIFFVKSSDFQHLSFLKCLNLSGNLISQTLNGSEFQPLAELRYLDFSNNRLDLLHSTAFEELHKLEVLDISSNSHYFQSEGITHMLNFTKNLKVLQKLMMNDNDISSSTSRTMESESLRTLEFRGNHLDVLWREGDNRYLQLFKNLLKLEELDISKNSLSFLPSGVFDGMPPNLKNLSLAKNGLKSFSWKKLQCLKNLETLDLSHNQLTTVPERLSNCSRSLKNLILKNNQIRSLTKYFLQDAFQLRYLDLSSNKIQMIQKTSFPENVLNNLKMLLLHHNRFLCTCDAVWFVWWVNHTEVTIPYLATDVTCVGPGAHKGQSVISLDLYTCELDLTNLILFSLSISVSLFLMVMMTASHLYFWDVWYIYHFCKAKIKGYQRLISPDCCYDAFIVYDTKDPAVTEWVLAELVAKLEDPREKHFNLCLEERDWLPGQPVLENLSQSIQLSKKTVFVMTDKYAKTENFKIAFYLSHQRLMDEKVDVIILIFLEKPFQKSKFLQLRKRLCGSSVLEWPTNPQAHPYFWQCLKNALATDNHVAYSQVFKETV
Description: (§1) TLR7/8/9 Inhibition Reporter Assays
Briefly, cells are seeded into Greiner 384 well plates (15000 cells per well for TLR7, 20,000 for TLR8 and 25,000 for TLR9) and then treated with test compounds in DMSO to yield a final dose response concentration range of 0.05 nM-50 μM. […] After a 22 hour incubation at 37° C., 5% CO2, SEAP levels are determined with the addition of HEK-Blue™ Detection reagent (Invivogen), a cell culture medium that allows for detection of SEAP, according to manufacturer's specifications. The percent inhibition is determined as the % reduction in the HEK-Blue signal present in wells treated with agonist plus DMSO alone compared to wells treated with a known inhibitor.

[2] = biological target: T2, human TLR9 (Homo sapiens, UniProt Q9NR96); experiment: TLR9 inhibition reporter assay (HEK-Blue SEAP); format: cell-based; settings: HEK-Blue cells overexpressing human TLR9, ODN2006 5 nM, 22 hour incubation
T2 construct: host or cells: HEK-Blue cells
T2 sequence (Q9NR96 26-1032): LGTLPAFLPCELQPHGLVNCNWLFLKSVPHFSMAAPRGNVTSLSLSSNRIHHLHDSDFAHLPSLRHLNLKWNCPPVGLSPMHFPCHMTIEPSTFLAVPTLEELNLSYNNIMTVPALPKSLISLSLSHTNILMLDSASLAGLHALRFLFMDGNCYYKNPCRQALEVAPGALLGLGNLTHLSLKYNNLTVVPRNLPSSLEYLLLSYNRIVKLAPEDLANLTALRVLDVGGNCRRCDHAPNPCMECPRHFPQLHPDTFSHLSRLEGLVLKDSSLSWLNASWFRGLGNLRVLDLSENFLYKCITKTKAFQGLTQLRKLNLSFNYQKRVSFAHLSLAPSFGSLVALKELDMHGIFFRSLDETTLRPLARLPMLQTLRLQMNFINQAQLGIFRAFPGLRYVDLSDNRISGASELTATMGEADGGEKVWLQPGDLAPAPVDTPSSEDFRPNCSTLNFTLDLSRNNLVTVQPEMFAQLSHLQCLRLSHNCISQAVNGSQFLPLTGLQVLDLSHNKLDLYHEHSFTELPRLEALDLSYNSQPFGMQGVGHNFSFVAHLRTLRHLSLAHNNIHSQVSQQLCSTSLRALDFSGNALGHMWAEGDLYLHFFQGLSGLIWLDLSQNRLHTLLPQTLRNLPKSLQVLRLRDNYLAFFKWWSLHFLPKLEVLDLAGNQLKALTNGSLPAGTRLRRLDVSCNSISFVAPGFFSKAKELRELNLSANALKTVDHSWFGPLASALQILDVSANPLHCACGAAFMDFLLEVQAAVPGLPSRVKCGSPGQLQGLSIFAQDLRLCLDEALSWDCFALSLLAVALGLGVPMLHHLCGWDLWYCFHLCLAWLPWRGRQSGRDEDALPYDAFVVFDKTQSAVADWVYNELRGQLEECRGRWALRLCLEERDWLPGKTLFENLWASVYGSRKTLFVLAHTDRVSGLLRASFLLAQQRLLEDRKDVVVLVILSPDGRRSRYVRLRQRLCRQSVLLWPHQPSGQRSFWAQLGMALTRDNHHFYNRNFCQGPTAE
Description: as §1
HEK-Blue™-cells (Invivogen) overexpressing human TLR7, TLR8 or TLR9 receptors were used for screening inhibitors of these receptors using an inducible SEAP (secreted embryonic alkaline phosphatase) reporter gene under the control of the IFN-β minimal promoter fused to five NF-κB and AP-1-binding sites. Briefly, cells are seeded into Greiner 384 well plates (15000 cells per well for TLR7, 20,000 for TLR8 and 25,000 for TLR9) and then treated with test compounds in DMSO to yield a final dose response concentration range of 0.05 nM-50 μM. After a 30 minute compound pre-treatment at room temperature, the cells are then stimulated with a TLR7 ligand (gardiquimod at a final concentration of 7.5 μM), TLR8 ligand (R848 at a final concentration of 15.9 μM) or TLR9 ligand (ODN2006 at a final concentration of 5 nM) to activate NF-κB and AP-1 which induce the production of SEAP. After a 22 hour incubation at 37° C., 5% CO2, SEAP levels are determined with the addition of HEK-Blue™ Detection reagent (Invivogen), a cell culture medium that allows for detection of SEAP, according to manufacturer's specifications. The percent inhibition is determined as the % reduction in the HEK-Blue signal present in wells treated with agonist plus DMSO alone compared to wells treated with a known inhibitor.

| SMILES | IC50 [1] [µM] | IC50 [2] [µM] |
| --- | --- | --- |
| Cc1cc2c(cc1-c1cc(C)c3ncnn3c1)[nH]c(=O)n2C1CCN(C(=O)CN(C)C)CC1 [Example 101, 1-(1-(dimethylglycyl)piperidin-4-yl)-6-methyl-5-(8-methyl-[1,2,4]triazolo[1,5-a]pyridin-6-yl)-1,3-dihydro-2H-benzo[d]imidazol-2-one] | 0.173 | 2.58 |
| Cc1cc(-c2ccc3c(c2)[nH]c(=O)n3C2CCN(C(=O)CN(C)C)CC2)cn2ncnc12 [Example 102, 1-(1-(dimethylglycyl)piperidin-4-yl)-5-(8-methyl-[1,2,4]triazolo[1,5-a]pyridin-6-yl)-1,3-dihydro-2H-benzo[d]imidazol-2-one] | > 3.13 | 3.21 |
| Cc1cc(-c2cc(C)c3ncnn3c2)cc2[nH]c(=O)n(C3CCN(C)CC3)c12 [Example 106, 7-methyl-5-(8-methyl-[1,2,4]triazolo[1,5-a]pyridin-6-yl)-1-(1-methylpiperidin-4-yl)-1,3-dihydro-2H-benzo[d]imidazol-2-one] | 0.0297 | 3.74 |
| Cc1cc(-c2cc(C)c3ncnn3c2)cc2[nH]c(=O)n(C3CCN(C(C)C)CC3)c12 [Example 107, 1-(1-isopropylpiperidin-4-yl)-7-methyl-5-(8-methyl-[1,2,4]triazolo[1,5-a]pyridin-6-yl)-1,3-dihydro-2H-benzo[d]imidazol-2-one] | 0.0329 | 2.99 |
| CCN1CCC(n2c(=O)[nH]c3cc(-c4cc(C)c5ncnn5c4)cc(C)c32)CC1 [Example 108, 1-(1-ethylpiperidin-4-yl)-7-methyl-5-(8-methyl-[1,2,4]triazolo[1,5-a]pyridin-6-yl)-1,3-dihydro-2H-benzo[d]imidazol-2-one] | 0.0115 | 1.16 |
| Cc1cc(-c2cc(C)c3ncnn3c2)cc2[nH]c(=O)n(C3CCN(CC(=O)N(C)C)CC3)c12 [Example 109, N,N-dimethyl-2-(4-(7-methyl-5-(8-methyl-[1,2,4]triazolo[1,5-a]pyridin-6-yl)-2-oxo-2,3-dihydro-1H-benzo[d]imidazol-1-yl)piperidin-1-yl)acetamide] | 0.0741 | 14.3 |

Now from value to molecule:

| IC50 [1] [µM] | IC50 [2] [µM] | SMILES |
| --- | --- | --- |
| 0.215 | 4.72 | Cc1cc2c(cc1-c1cc(C)c3ncnn3c1)[nH]c(=O)n2[C@H]1CCCN(C(=O)CN(C)C)C1 [Example 103, (S)-1-(1-(dimethylglycyl)piperidin-3-yl)-6-methyl-5-(8-methyl-[1,2,4]triazolo[1,5-a]pyridin-6-yl)-1,3-dihydro-2H-benzo[d]imidazol-2-one] |
| 0.071 | 1.45 | Cc1cc2c(cc1-c1cc(C)c3ncnn3c1)[nH]c(=O)n2[C@@H]1CCCN(C(=O)CN(C)C)C1 [Example 104, (R)-1-(1-(dimethylglycyl)piperidin-3-yl)-6-methyl-5-(8-methyl-[1,2,4]triazolo[1,5-a]pyridin-6-yl)-1,3-dihydro-2H-benzo[d]imidazol-2-one] |
| 0.399 | 7.94 | COc1cc(-c2cc3[nH]c(=O)n(C4CCCN(C(=O)CN(C)C)C4)c3cc2C)cn2ncnc12 (stereo not drawn) [Example 105, 1-(1-(dimethylglycyl)piperidin-3-yl)-5-(8-methoxy-[1,2,4]triazolo[1,5-a]pyridin-6-yl)-6-methyl-1,3-dihydro-2H-benzo[d]imidazol-2-one] |
| 0.0168 | 7.82 | CCN1CCC[C@@H](n2c(=O)[nH]c3cc(-c4cc(OC)c5ncnn5c4)c(C(F)(F)F)cc32)C1 [Example 110, (R)-1-(1-ethylpiperidin-3-yl)-5-(8-methoxy-[1,2,4]triazolo[1,5-a]pyridin-6-yl)-6-(trifluoromethyl)-1,3-dihydro-2H-benzo[d]imidazol-2-one] |
| 0.0236 | 9.94 | COc1cc(-c2cc3[nH]c(=O)n([C@@H]4CCCN(C(C)C)C4)c3cc2C(F)(F)F)cn2ncnc12 [Example 111, (R)-1-(1-isopropylpiperidin-3-yl)-5-(8-methoxy-[1,2,4]triazolo[1,5-a]pyridin-6-yl)-6-(trifluoromethyl)-1,3-dihydro-2H-benzo[d]imidazol-2-one] |
| 0.0308 | 12.7 | COc1cc(-c2cc3[nH]c(=O)n([C@@H]4CCCN(CC5CCOCC5)C4)c3cc2C(F)(F)F)cn2ncnc12 [Example 112, (R)-5-(8-methoxy-[1,2,4]triazolo[1,5-a]pyridin-6-yl)-1-(1-((tetrahydro-2H-pyran-4-yl)methyl)piperidin-3-yl)-6-(trifluoromethyl)-1,3-dihydro-2H-benzo[d]imidazol-2-one] |
| 0.488 | > 50 | COc1cc(-c2cc3[nH]c(=O)n([C@@H]4CCCN(C5COC5)C4)c3cc2C(F)(F)F)cn2ncnc12 [Example 113, (R)-5-(8-methoxy-[1,2,4]triazolo[1,5-a]pyridin-6-yl)-1-(1-(oxetan-3-yl)piperidin-3-yl)-6-(trifluoromethyl)-1,3-dihydro-2H-benzo[d]imidazol-2-one] |
| 0.00287 | 0.618 | COc1cc(-c2cc3[nH]c(=O)n([C@@H]4CCCN(C)C4)c3cc2C(F)(F)F)cn2ncnc12 [Example 114, (R)-5-(8-methoxy-[1,2,4]triazolo[1,5-a]pyridin-6-yl)-1-(1-methylpiperidin-3-yl)-6-(trifluoromethyl)-1,3-dihydro-2H-benzo[d]imidazol-2-one] |
| 0.0341 | 13.4 | CCCN1CCC[C@@H](n2c(=O)[nH]c3cc(-c4cc(OC)c5ncnn5c4)c(C(F)(F)F)cc32)C1 [Example 115, (R)-5-(8-methoxy-[1,2,4]triazolo[1,5-a]pyridin-6-yl)-1-(1-propylpiperidin-3-yl)-6-(trifluoromethyl)-1,3-dihydro-2H-benzo[d]imidazol-2-one] |
